{"source": "patent US20110195404A1", "about": "“SYSTEMS AND METHODS FOR DETERMINING CALCIUM LEVELS” (priority 2010, published 2011)", "key": {"Lysozyme": {"molecular_target": "T1, Lysozyme (Homo sapiens, UniProt P61626)", "T1 sequence (P61626 19-148)": "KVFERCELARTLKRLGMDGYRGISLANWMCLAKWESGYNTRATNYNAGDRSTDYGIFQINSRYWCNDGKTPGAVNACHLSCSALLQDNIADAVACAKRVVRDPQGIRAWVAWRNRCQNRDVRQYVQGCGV", "test": "Lysozyme inhibition saliva screening (fluorescein-labeled Micrococcus lysodeikticus)", "type": "biochemical", "text": "The assay measures lysozyme activity on Micrococcus lysodeikticus cell walls, which are labeled to such a degree that the fluorescence is quenched. Lysozyme activity can relieve this quenching; yielding increased fluorescence that is proportional to lysozyme activity."}, "α-amylase": {"molecular_target": "T2, α-amylase (Homo sapiens, UniProt P0DUB6)", "T2 sequence (P0DUB6 16-511)": "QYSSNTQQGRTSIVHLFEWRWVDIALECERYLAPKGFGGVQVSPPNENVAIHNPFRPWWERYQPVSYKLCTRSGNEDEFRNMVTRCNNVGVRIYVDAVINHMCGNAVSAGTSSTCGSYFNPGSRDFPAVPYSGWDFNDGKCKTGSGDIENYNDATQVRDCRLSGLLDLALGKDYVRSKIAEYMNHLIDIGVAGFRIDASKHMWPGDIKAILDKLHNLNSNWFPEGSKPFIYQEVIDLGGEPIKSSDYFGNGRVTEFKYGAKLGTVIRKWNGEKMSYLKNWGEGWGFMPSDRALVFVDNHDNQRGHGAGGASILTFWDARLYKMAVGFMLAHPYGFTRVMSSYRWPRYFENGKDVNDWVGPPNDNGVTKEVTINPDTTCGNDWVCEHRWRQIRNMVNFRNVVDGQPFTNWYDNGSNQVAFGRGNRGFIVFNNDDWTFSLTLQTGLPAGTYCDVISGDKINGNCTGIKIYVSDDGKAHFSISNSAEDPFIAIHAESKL", "test": "α-Amylase inhibition saliva screening (2-chloro-p-nitrophenol-maltotriose substrate, absorbance 405 nm)", "type": "biochemical", "conditions": "37° C.; for α-amylase assay reading (absorbance at 405 nm), single replicate: test compound prepared at 5,000 ppm", "text": "Enzymatic activity of α-amylase on the substrate yields 2-chloro-p-nitrophenol, which can be measured spectrophotometrically at 405 nm. The amount of α-amylase activity present in the experimental sample is directly proportional to the increase in absorbance at 405 nm."}}, "note": "Values joined by “and” are separate entries in the source; they are usually repeats but may differ in a detail not shown here. Equal entries are not always repeated."}
{"compound": "CC(=O)O", "note": "[CDI-047, Acetic acid]", "values": [{"measurement": "inhibition of Lysozyme", "setting": "Lysozyme; 100% saliva samples (data not shown)", "result": "inhibit Lysozyme"}, {"measurement": "Lysozyme Inhibitor Activity", "setting": "Lysozyme; dilute (3.5%) saliva, FIG. 12", "result": "Lysozyme Inhibitor Activity"}]}
{"compound": "Aluminum potassium sulfate dodecahydrate [CDI-42]", "values": [{"measurement": "α-amylase assay reading, Ave", "setting": "α-amylase; 0 min, 5,000 ppm", "result": 0.92}, {"measurement": "α-amylase assay reading (absorbance at 405 nm), single replicate", "setting": "α-amylase; 0 min", "result": "0.80 and 0.90 and 0.84"}, {"measurement": "α-amylase assay reading (absorbance at 405 nm), single replicate", "setting": "α-amylase; 5 min", "result": 1.80}]}
{"compound": "Aluminum sulfate hydrate [CDI-34]", "values": [{"measurement": "α-amylase assay reading, Ave", "setting": "α-amylase; 0 min, 5,000 ppm", "result": 0.40}, {"measurement": "α-amylase assay reading (absorbance at 405 nm), single replicate", "setting": "α-amylase; 0 min, sulfate hydrate", "result": "0.40 (2×) and 0.36 and 0.45"}, {"measurement": "α-amylase assay reading, Ave", "setting": "α-amylase; 5 min, 5,000 ppm", "result": 0.50}, {"measurement": "α-amylase assay reading (absorbance at 405 nm), single replicate", "setting": "α-amylase; 5 min, sulfate hydrate", "result": "0.49 and 0.50 (2×) and 0.52"}, {"measurement": "α-amylase assay reading, Ave", "setting": "α-amylase; 15 min, 5,000 ppm", "result": 0.56}, {"measurement": "α-amylase assay reading (absorbance at 405 nm), single replicate", "setting": "α-amylase; 15 min, sulfate hydrate", "result": "0.53 and 0.61 and 0.54 and 0.56"}]}
